Test results reported in ChEMBL document CHEMBL5724709, “EUbOPEN Chemogenomics Library - IncuCyte” (2024).

Experiments:
Type in all cases: toxicity, cell-based
[1] = tested on: U2OS; experiment: Incucyte cell viability with U2OS; settings: human, 24 h, 10 µM, compound concentration 10 uM
[2] = tested on: Fibroblast; experiment: Incucyte cell viability with human fibroblast; settings: 24 h, 10 µM, compound concentration 10 uM
[3] = tested on: HEK-293T; experiment: Incucyte cell viability with HEK293T; settings: human, 24 h, 10 µM, compound concentration 10 uM
Note: unitless GR value; below 1 slowed growth and below 0 cell loss.

Compound | Growth Rate ([1]; replicate number 1) | Growth Rate ([2]; replicate number 1) | Growth Rate ([2]; replicate number 2) | Growth Rate ([3]; replicate number 1) | Growth Rate ([3]; replicate number 2) | Growth Rate ([1]; replicate number 2)
CC(=O)N[C@@H](Cc1ccc(O)cc1)C(=O)N[C@H](C(=O)N[C@@H](C)C(=O)N[C@@H](CC(=O)O)C(=O)COC(=O)c1c(C)cccc1C)C(C)C | 1 | 0.47 | 0.72 | 0.9 | 0.84 | –
COc1cc(C(C)C)c2c(c1)S(=O)(=O)N(COc1cc(=O)n3cccc(OCCN4CCCCC4)c3n1)C2=O | 0.9 | -0.1 | -0.7 | -0.22 | -0.01 | 1
COc1ccccc1C(=O)Nc1cc2c(cc1N1CCCCC1)n(C)c(=O)n2C | 1 | 1 | – | 0.58 | 0.99 | –
N[C@@H](CC(=O)N1CCN(C(c2ccc(F)cc2)c2ccc(F)cc2)CC1)C(=O)N1Cc2ccccc2C1 | 1 | 1 | – | 0.66 | 0.87 | –
COc1cc2c(NC3CCN(C4CCCCC4)CC3)nc(N3CCCN(C(C)C)CC3)nc2cc1OCCCN1CCCCC1 | -0.09 | 0.42 | 0.22 | -0.52 | -0.39 | 0.29
N#C[C@@H]1CCCN1C(=O)[C@@H]1CCCN1C(=O)CCCc1ccccc1 | 1 | 1 | – | 0.6 | 0.93 | 0.94
CC(=O)OCCN1C(=O)c2c(C)nc3ccc(S(=O)(=O)N4CCOCC4)cc3c2C1=O | 0.83 | 0.85 | 1 | 0.92 | 1 | 1
CC(C)[C@H](NC(=O)OCc1ccccc1)C(=O)NC(CC(=O)O)C(=O)CF (some centres not stated) | 1 | 0.54 | 1 | 1 | 0.94 | 0.69
CC(C)[C@@H]1C(=O)N(S(C)(=O)=O)[C@@H]2CCN(C(=O)/C=C/CN3CCCCC3)[C@H]21.Cl | 1 | 0.66 | 1 | 0.79 | 0.98 | 0.76
C[C@H](NC(=O)[C@H](Cc1ccccc1)NC(=O)OCc1ccccc1)C(=O)CF | 0.43 | 1 | – | 0.53 | 0.77 | 0.93
CCc1ccccc1NC(=O)CSC(=O)NNC(=O)[C@H](Cc1c[nH]c2ccccc12)NC(=O)OC(C)(C)C | 1 | 1 | – | 0.24 | 0.54 | –
CC(C)C[C@@H](C=O)NC(=O)[C@@H](NS(=O)(=O)c1ccc(F)cc1)C(C)C | 0.76 | 0.96 | 1 | 0.64 | 0.92 | 1
O=C(O)/C(S)=C/c1c[nH]c2ccc(F)cc12 | 0.49 | 0.7 | 1 | 0.73 | 0.83 | 1
CNC(=O)O[C@H]1COc2ccc(N3CCN(C4COC4)CC3)cc2[C@@H]1NC(=O)c1ccc(F)cc1 | 1 | 1 | 0.67 | 0.89 | 0.97 | –
O=C(O)/C(S)=C/c1ccc(I)cc1 | 1 | 1 | 0.47 | 0.71 | 0.86 | –
CC(C)C(=O)SCCCCCCC(=O)Nc1nc(-c2ccccc2)cs1 | -0.42 | 1 | -0.31 | 0.55 | – | 0.02
CC(=O)N[C@@H](Cc1ccc(O)cc1)C(=O)N[C@H](C(=O)N[C@@H](C)C(=O)N[C@H](C=O)CC(=O)O)C(C)C | 0.78 | 0.86 | 0.09 | 0.6 | 0.86 | 0.63
CN1CCN(c2nc(-c3ccc(C(=O)NC4(C(=O)NCC#N)CCCCC4)cc3)cs2)CC1 | 1 | 0.74 | 1 | 0.86 | 0.8 | –
CC(C)(O)c1ccc(-c2nc3c(F)cc(F)cc3c(=O)[nH]2)cc1 | 0.23 | 0.13 | 0.87 | 0.45 | 1 | 1
CCCNC(=O)[C@H]1O[C@@H]1C(=O)N[C@H](C(=O)N1CCC[C@H]1C(=O)O)[C@@H](C)CC | 1 | 0.65 | 1 | 0.63 | 0.84 | –

Compound | Growth Rate ([1]; replicate number 1) | Growth Rate ([2]; replicate number 1) | Growth Rate ([2]; replicate number 2) | Growth Rate ([3]; replicate number 1) | Growth Rate ([3]; replicate number 2) | Growth Rate ([1]; replicate number 2)
COc1cccc(-c2nccc3c2CN(c2ccccc2)C3=O)c1 | 1 | 0.52 | 0.84 | 0.75 | 0.7 | 0.84
CC(=O)Nc1ccc(-c2cc(-c3ccccc3)nc3cc(C(=O)NCCCn4ccnc4)nn23)cc1 | 1 | 0.41 | 1 | 0.47 | 0.63 | 0.62
NC(=O)c1cccc(NC(=O)CCC(=O)NCCc2cn(CCNS(=O)(=O)c3cccc(C(=O)O)c3)nn2)c1 | 0.49 | 0.46 | 1 | 0.69 | 0.77 | 1
CNC[C@@H](O)COc1ccc(Cl)c(-c2nc(-c3c(C)noc3C)c(C)c(N3CC4(CCN(C(=O)OC)CC4)C3)n2)c1 | 1 | 0.24 | 1 | 0.46 | 0.73 | –
CCC(NC(=O)C(CC(C)C)NC(=O)OCc1ccccc1)C(=O)C(=O)NCCCN1CCOCC1.O=C(O)C(F)(F)F (configuration not stated) | 1 | 1 | – | 0.73 | 0.97 | –
CC(=O)N[C@@H](CC(=O)O)C(=O)N[C@@H](CCC(=O)O)C(=O)N[C@H](C(=O)N[C@H](C=O)CC(=O)O)C(C)C.O=C(O)C(F)(F)F | 1 | 0.55 | 0.22 | 0.74 | 1 | –
O=C1C(=O)N(Cc2ccccc2)c2ccc(S(=O)(=O)N3CCC[C@H]3COc3ccc(C(F)(F)F)cc3)cc21 | -0.63 | -0.08 | 0.99 | -0.25 | -0.13 | -0.25
CNC(=O)c1cc(Nc2ccnc(Nc3ccc(CCNC(=O)OC(C)(C)C)cc3)n2)[nH]n1 | 0.07 | 1 | – | 0.07 | 0.24 | 0.79
CC(=O)N[C@@H](CC(=O)O)C(=O)N[C@@H](CCC(=O)O)C(=O)N[C@H](C(=O)N[C@@H](CC(=O)O)C(=O)CCl)C(C)C.O=C(O)C(F)(F)F | 1 | 1 | 0.21 | 0.81 | 1 | –
O=C(Nc1c[nH]nc1C(=O)NC1CCNCC1)c1cc(F)cc(F)c1 | -0.13 | -0.45 | -0.55 | 0.15 | 0.14 | 0.19
Cl.Cl.O=C(O)Cn1nnc(-c2ccc(CN(CCCCOc3ccc(CN4CCCC4)cc3)CCc3ccccc3)cc2)n1 | 1 | 0.66 | 1 | 0.53 | 0.89 | 0.91
Cn1cc(NC(=O)c2cc(F)cc(F)c2)c(C(=O)NC2CCNCC2)n1 | 0.63 | 0.67 | 1 | 0.67 | 0.9 | 0.71
CC(C)c1cnc(CSc2cnc(NC(=O)C3CCNCC3)s2)o1 | -0.6 | -0.05 | -0.46 | -0.28 | -0.09 | -0.31
CN1CCN(c2cc(C(=O)Nc3ncc(SCc4cccc(C(F)(F)F)c4)s3)ccn2)CC1 | 0.31 | 0.19 | 1 | 0.24 | 0.59 | 0.48
CC(=O)N[C@@H](Cc1ccc(O)cc1)C(=O)N[C@H](C(=O)N[C@@H](C)C(=O)N[C@@H](CC(=O)O)C(=O)CCl)C(C)C | 1 | 0.42 | 1 | 0.82 | 0.89 | –
CC(C)(C)OC(=O)Nc1ccc(CNc2nccc(Nc3cc(C(=O)OC(C)(C)C)[nH]n3)n2)cc1 | 0.42 | 1 | 0.07 | -0.38 | -0.24 | 0.67
O=C(NCC1CCOCC1)c1n[nH]cc1NC(=O)c1c(F)cccc1F | 0.03 | -0.35 | 0.3 | 0.35 | 0.49 | 0.42
CNC(=O)c1cnc(N2CCC[C@H](N)C2)nc1Nc1cc(C(C)C)nc(C(C)C)c1 | -0.44 | 0.72 | 0.44 | -0.35 | -0.02 | 0.05
COC[C@@H]1CCCN1S(=O)(=O)c1ccc2c(c1)C(=O)C(=O)N2 | 1 | 0.45 | 0.8 | 0.88 | 1 | –
